From ChEMBL document CHEMBL1130705, “Synthesis and antiplatelet effects of an isoxazole series of glycoprotein IIb/IIIa antagonists” (Bioorg Med Chem Lett, 1998)

Tests used:
[1] = species on record: Homo sapiens; experiment: Compound was tested for inhibition of ADP induced platelet aggregation by using human platelet rich plasma (PRP) assay; format: functional
[2] = species on record: Homo sapiens; experiment: Compound was tested for inhibition of ADP induced platelet aggregation by using human platelet rich plasma(PRP) assay; format: functional

| Compound | IC50 [1] [nM] | IC50 [2] [nM] |
| --- | --- | --- |
| CCCCOC(=O)N[C@@H](CNC(=O)c1cc(OCC2CCN(C(=N)N)CC2)no1)C(=O)OC | 200 |  |
| CCCCOC(=O)N[C@@H](CNC(=O)c1cc(OCc2ccc(C(=N)N)cc2)no1)C(=O)O |  | 60 |
| CCCCOC(=O)N[C@@H](CNC(=O)c1cc(OCc2ccc(C(=N)N)cc2)no1)C(=O)OC |  | 50 |
| CCCCOC(=O)N[C@@H](CNC(=O)c1cccc(COc2ccc(C(=N)N)cc2)c1)C(=O)OC |  | 32 |
